Reference: patent US20030060397A1, “Method of treating and preventing acute neural lesions with substances that modulate the expression or function of a protein involved in the cell cycle and pharmaceutical preparations containing such substances” (priority 2000, published 2003)

Key:
hippocampus cells = assay: Kainate-dependent neuronal death in primary hippocampus cell cultures (propidium iodine); format: cell-based, Wistar rats; details: kainate 20 μM
Experimental: Neuronal death was analyzed by phase contrast microscopy and the use of two death markers: propidium iodine and Hoechst dye (Bisbenzimide).
Counting was performed on hippocampus cultures exposed to 20 μM of kainate. At least two dishes per condition were evaluated.

cyclin D1 = assay: Western blot of cyclin D1 expression after exposure to kainate, normalized by class III β-tubulin; format: cell-based, Wistar rats; details: kainate 75 μM, 100% before kainate
Experimental: After exposure of the hippocampus cells to kainate, the cells were washed in PBS then lysed in a Laemli buffer. The samples were subjected to sonication and heated at 100° C. for 5 minutes. Electrophoresis with a 12% SDS-polyacrylamide gel was then performed. The proteins were then transferred onto a nitrocellulose membrane and incubated with an anti-cyclin D1 monoclonal antibody or with an anti-CDK5 polyclonal antibody (Santa Cruz, Calif., USA) or with a class III anti-β-tubulin monoclonal antibody (Sigma, St. Louis, USA), a specific neuronal marker. Labeling was performed using the anti-rabbit antibody or anti-mouse antibody coupled to horseradish peroxidase using the ECLTM kit (Amersham Corp., England). The control experiments were performed by omitting the first antibodies.

[1] = test system: excitotoxic neuronal death induced by kainate; details: inhibitors of caspases; cited from earlier work
[2] = 5 hours, in the absence of inhibitor

## C=C(C)[C@H]1CN[C@H](C(=O)O)[C@H]1CC(=O)O [kainate]
Hippocampus cells; [2]
  augmentation of neuronal death in relation to the cultures without kainate: 150%
  neuronal death: ~65%
Hippocampus cells; propidium iodine
  time of mortality peak: 5 h
Cyclin D1
  normalized level of expression of cyclin D1 (percentage of the control): more than 150%

## DEVD-CHO
[1]
  prevention of excitotoxic neuronal death induced by kainate: can not be prevented

## YVAD-CHO
[1]
  prevention of excitotoxic neuronal death induced by kainate: can not be prevented
